# In patent US12091410B2, “Heterocyclic compound” (Takeda Pharmaceutical Company Limited, priority 2018, dated 2024):
# Molecular target: T1, human orexin type 2 receptor (Homo sapiens, UniProt O43614)
# T1 construct: expressed in transfected cells
# T1 sequence (O43614 1-444): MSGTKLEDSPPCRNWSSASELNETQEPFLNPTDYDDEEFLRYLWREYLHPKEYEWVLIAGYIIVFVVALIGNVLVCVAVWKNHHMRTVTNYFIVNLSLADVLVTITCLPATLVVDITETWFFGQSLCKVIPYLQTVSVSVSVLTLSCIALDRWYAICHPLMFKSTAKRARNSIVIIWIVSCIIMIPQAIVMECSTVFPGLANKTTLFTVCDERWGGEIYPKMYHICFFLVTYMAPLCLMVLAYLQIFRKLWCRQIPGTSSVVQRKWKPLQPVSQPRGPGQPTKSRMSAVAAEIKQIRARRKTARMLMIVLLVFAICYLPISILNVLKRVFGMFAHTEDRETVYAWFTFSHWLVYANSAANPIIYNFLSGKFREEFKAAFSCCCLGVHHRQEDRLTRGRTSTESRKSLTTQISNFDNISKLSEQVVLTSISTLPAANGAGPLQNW
# Experiment: Measurement of orexin type 2 receptor agonist activity (calcium fluorescence, Fluo-4 AM, CHO cells forcibly expressing human OX2 receptor)
# Format: cell-based
# Settings: test compound 3 μM, DMSO = 0%, orexin A (human) 10 nM = 100%
# Excerpt: To obtain a cell clone stably expressing human orexin type 2 receptor, human orexin type 2 receptor cDNA was inserted into pcDNA3.1(+) plasmid vector (Invitrogen), and a plasmid DNA for expression of human orexin type 2 receptor (pcDNA3.1(+)/hOX2R) was cloned. The plasmid DNA was introduced into CHO-dhfr cell by an electroporation method, and human orexin type 2 receptor expressing clone cells were obtained by limiting dilution method by using G418 drug resistance as a selection marker.
# CHO cells forcibly expressing human OX2 receptor were seeded in each well of 384 well black transparent bottom plate (BD Falcon) at 7,500 cells/well, and cultured for one day in a 5% CO2 incubator at 37° C. After removal of the medium in the cell plate, assay buffer A containing a calcium indicator (HBSS (Thermo Fisher Scientific), 20 mM HEPES (Thermo Fisher Scientific), 0.1% BSA (Sigma-Aldrich), 2.5 μg/mL Fluo-4 AM (DOJINDO Chemical), 0.08% Pluronic F127 (DOJINDO Chemical), 1.25 mM probenecid (DOJINDO Chemical)) was added at 30 μL/well. The plate was stood for 30 min in a 5% CO2 incubator at 37° C., and further stood at room temperature for 30 min. A test compound prepared by diluting with assay buffer B (HBSS, 20 mM HEPES, 0.1% BSA) was added at 10 μL/well, and the fluorescence value was measured by FDSSpCELL (Hamamatsu Photonics K. K.) every one sec for 1 min, and thereafter every two sec for 1 min 40 sec. The activity (%) of the test compound was calculated assuming that variation in the fluorescence value when DMSO was added instead of the test compound was 0%, and variation in the fluorescence value when orexin A (human) (PEPTIDE INSTITUTE, INC.) was added at the final concentration of 10 nM was 100%.
row,"OX2R agonist activity (3 μM, %)",SMILES
1,80%,"CCc1cc2n(n1)[C@@H](COC1CCN(c3ccccn3)CC1)[C@@H](NS(C)(=O)=O)CC2 (racemic) [Example 42, rac-N-[(6S,7R)-2-ethyl-7-({[1-(pyridin-2-yl)piperidin-4-yl]oxy}methyl)-4,5,6,7-tetrahydropyrazolo[1,5-a]pyridin-6-yl]methanesulfonamide]"
2,94%,"CC(C)n1cc2c(n1)[C@@H](COC1CCN(c3ncc(F)cn3)CC1)[C@@H](NS(C)(=O)=O)CC2 (racemic) [Example 44, rac-N-[(6S,7S)-7-({[1-(5-fluoropyrimidin-2-yl)piperidin-4-yl]oxy}methyl)-2-(propan-2-yl)-4,5,6,7-tetrahydro-2H-indazol-6-yl]methanesulfonamide]"
3,101%,"CCc1cc2n(n1)[C@@H](COC1CCN(c3ncccn3)CC1)[C@@H](NS(=O)(=O)CC)CC2 (racemic) [Example 45, rac-N-[(6S,7R)-2-ethyl-7-({[1-(pyrimidin-2-yl)piperidin-4-yl]oxy}methyl)-4,5,6,7-tetrahydropyrazolo[1,5-a]pyridin-6-yl]ethanesulfonamide]"
4,98%,"CC(C)n1cc2c(n1)[C@@H](COC1CCN(c3ncccn3)CC1)[C@@H](NS(C)(=O)=O)CC2 (racemic) [Example 47, rac-N-[(6S,7S)-2-(propan-2-yl)-7-({[1-(pyrimidin-2-yl)piperidin-4-yl]oxy}methyl)-4,5,6,7-tetrahydro-2H-indazol-6-yl]methanesulfonamide]"
5,92%,"CC(O)c1nn2c(c1Cl)CCC(NS(C)(=O)=O)C2COC1CCN(c2ncccn2)CC1 (racemic) [Example 50, N-[(6SR,7RS)-3-chloro-2-(1-hydroxyethyl)-7-({[1-(pyrimidin-2-yl)piperidin-4-yl]oxy}methyl)-4,5,6,7-tetrahydropyrazolo[1,5-a]pyridin-6-yl]methanesulfonamide]"
6,95%,"CCc1nn2c(c1Br)CC[C@H](NS(C)(=O)=O)[C@@H]2COC1CCN(c2ncc(F)cn2)CC1 (racemic) [Example 52, rac-N-[(6S,7R)-3-bromo-2-ethyl-7-({[1-(5-fluoropyrimidin-2-yl)piperidin-4-yl]oxy}methyl)-4,5,6,7-tetrahydropyrazolo[1,5-a]pyridin-6-yl]methanesulfonamide]"
7,72%,"Cc1ccc2c(n1)[C@@H](Cc1cccc(-c3ccccc3)c1)[C@@H](NS(C)(=O)=O)CC2 (racemic) [Example 62, rac-N-{(7S,8S)-8-[([1,1′-biphenyl]-3-yl)methyl]-2-methyl-5,6,7,8-tetrahydroquinolin-7-yl}methanesulfonamide]"
8,111%,"CC(C)c1cc2n(n1)[C@@H](COC1CCN(c3ncc(F)cn3)CC1)[C@@H](NS(C)(=O)=O)CC2 (relative stereo) [Example 24, rel-N-[(6S,7R)-7-({[1-(5-fluoropyrimidin-2-yl)piperidin-4-yl]oxy}methyl)-2-(propan-2-yl)-4,5,6,7-tetrahydropyrazolo[1,5-a]pyridin-6-yl]methanesulfonamide]"
9,91%,"CCc1cc2n(n1)[C@@H](COC1CCN(c3ncc(F)cn3)CC1)[C@@H](NS(C)(=O)=O)CC2 (relative stereo) [Example 33, rel-N-[(6S,7R)-2-ethyl-7-({[1-(5-fluoropyrimidin-2-yl)piperidin-4-yl]oxy}methyl)-4,5,6,7-tetrahydropyrazolo[1,5-a]pyridin-6-yl]methanesulfonamide]"
10,100%,"CC(C)c1cc2n(n1)[C@@H](COC1CCN(c3ncccn3)CC1)[C@@H](NS(C)(=O)=O)CC2 (relative stereo) [Example 56, rel-N-[(6S,7R)-2-(propan-2-yl)-7-({[1-(pyrimidin-2-yl)piperidin-4-yl]oxy}methyl)-4,5,6,7-tetrahydropyrazolo[1,5-a]pyridin-6-yl]methanesulfonamide]"
11,94%,"Cc1cn2c(n1)[C@@H](Cc1cccc(-c3cccc(F)c3)c1)[C@@H](NS(C)(=O)=O)CC2 (relative stereo) [Example 57, rel-N-{(7S,8S)-8-[(3′-fluoro[1,1′-biphenyl]-3-yl)methyl]-2-methyl-5,6,7,8-tetrahydroimidazo[1,2-a]pyridin-7-yl}methanesulfonamide]"
12,95%,"CCS(=O)(=O)N[C@H]1CCn2cc(C)nc2[C@H]1Cc1cccc(-c2cccc(F)c2)c1 (relative stereo) [Example 58, rel-N-{(7S,8S)-8-[(3′-fluoro[1,1′-biphenyl]-3-yl)methyl]-2-methyl-5,6,7,8-tetrahydroimidazo[1,2-a]pyridin-7-yl}ethanesulfonamide]"
13,101%,"CCc1cc2n(n1)[C@@H](COC1CCN(c3ncccn3)CC1)[C@@H](NS(C)(=O)=O)CC2 (relative stereo) [Example 59, rel-N-[(6S,7R)-2-ethyl-7-({[1-(pyrimidin-2-yl)piperidin-4-yl]oxy}methyl)-4,5,6,7-tetrahydropyrazolo[1,5-a]pyridin-6-yl]methanesulfonamide]"
14,92%,"Cc1cn2c(n1)C(COC1CCN(c3ncc(F)cn3)CC1)C(NC(=O)[C@@H]1CCCO1)CC2 (stereo in doubt) [Example 63, (2S)—N-[(7S*,8S*)-8-({[1-(5-fluoropyrimidin-2-yl)piperidin-4-yl]oxy}methyl)-2-methyl-5,6,7,8-tetrahydroimidazo[1,2-a]pyridin-7-yl]oxolane-2-carboxamide]"
